Counter-ions that a name gives are not always drawn.
Columns and labels:
IRAK-M [1] = biological target: T1, IRAK-M (Homo sapiens, UniProt Q9Y616); experiment: In vitro degradation activity of target protein (IRAK-M ELISA in THP1 cells); type: cell-based; design: host or cells: THP1 cells; conditions: 24 hours, second symbol of cell, read-out: IRAK-M 50% degradation concentration (DC50 value)
T1 sequence (Q9Y616 1-596): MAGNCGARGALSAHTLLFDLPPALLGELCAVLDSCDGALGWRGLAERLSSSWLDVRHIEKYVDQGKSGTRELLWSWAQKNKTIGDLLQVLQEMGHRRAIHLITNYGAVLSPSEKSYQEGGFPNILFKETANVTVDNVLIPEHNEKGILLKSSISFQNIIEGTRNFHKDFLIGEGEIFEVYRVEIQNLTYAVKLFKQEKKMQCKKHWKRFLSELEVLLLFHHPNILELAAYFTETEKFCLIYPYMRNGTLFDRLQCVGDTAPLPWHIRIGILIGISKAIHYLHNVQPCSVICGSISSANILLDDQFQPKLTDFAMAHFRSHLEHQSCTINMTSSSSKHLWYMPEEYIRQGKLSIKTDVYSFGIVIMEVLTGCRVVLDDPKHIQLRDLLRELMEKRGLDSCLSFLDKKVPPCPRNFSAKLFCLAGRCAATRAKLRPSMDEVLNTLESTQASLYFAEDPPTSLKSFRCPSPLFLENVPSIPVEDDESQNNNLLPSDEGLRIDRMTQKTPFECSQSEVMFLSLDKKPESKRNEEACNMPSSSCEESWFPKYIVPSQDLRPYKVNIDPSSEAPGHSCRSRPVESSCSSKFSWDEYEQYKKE
Description: In vitro degradation activities of target protein of the example compounds were evaluated using Enzyme-linked immuno-sorbent assay (ELISA) by the following assay steps. THP1 cells (ATCC, TIB-202) were cultured in RPMI-1640 supplemented with 10% FBS, lx sodium pyruvate, lx HEPES, D-(+)-glucose and 1% penicillin/streptomycin. THP1 cells were seeded at a density of 1×10^6 cells/well in 24-well plate and treated with DMSO control or test compound, and then incubated for 24 hours. The cells were collected and lysed on ice for 30 minutes in lysis buffer (PBS containing 0.1% Triton X-100) containing a protease inhibitor cocktail (Roche, Cat #11836170001). The lysates were sonicated for 30 sec ON/30 sec OFF for ten cycles and centrifuged for 10 minutes at 13k rpm at 4° C. Protein concentrations were determined by the BCA assay (Sigma, Cat #QPBCA-1KT). The ELISA assay was performed using the Human IRAK3/IRAKM/IRAK-M ELISA Kit (LifeSpan BioSciences, Cat #LS-F35271), and the protein levels of IRAK-M were evaluated according to the kit protocol. As to the IRAK-M degradation rate of test compounds, protein degradation rate (%) when the concentration of the test compound is […] described as A≥75%, 50%≤B<75%, 25%≤C<50%, D<25%, or 50% degradation concentration (DC50 value) described as A<0.03 μM, 0.03 μM≤B<0.1 μM, 0.1 μM≤C<0.3 μM, 0.3 μM≤D<1 μM, is shown in the table below.

[2] = biological target: T2, human XIAP_BIR3 domain purified protein (Homo sapiens, UniProt P98170); experiment: XIAP binding inhibitory activity (HTRF, b-Smac ligand); conditions: second symbol of cell; read-out: XIAP binding inhibition IC50 value
T2 construct: purchased R & D
T2 sequence (P98170 252-356 limits assumed): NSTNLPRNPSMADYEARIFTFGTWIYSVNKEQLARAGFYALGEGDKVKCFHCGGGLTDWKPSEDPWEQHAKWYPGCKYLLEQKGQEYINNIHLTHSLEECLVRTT
Method in brief: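 HTRF competition between compound and C-terminally biotinylated Smac peptide AVPIAQK for His-tagged XIAP BIR3, both diluted to 90 nM before addition, in pH 7.5 HEPES/NaCl/BSA/Triton buffer. Eu-cryptate anti-His and streptavidin-XL665 added, ≥4 h at room temperature in the dark; inhibition % from 665/615 nm ratio versus no-compound wells.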

IRAK-M [3] = biological target: T1, IRAK-M; experiment: IRAK-M binding inhibitory activity (KINOMEscan active site-dependent competitive assay); design: purchased Eurofins Discover X; conditions: for remaining binding at 1 µM: concentration of the test compound 1 μM, first symbol of cell, read-out: IRAK-M binding inhibition activity % Ctrl; for IC50: second symbol of cell, read-out: IRAK-M binding inhibition IC50 value
Method in brief: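 Readout given as % Ctrl, with DMSO as 100% and a control compound as 0%, scaling the test compound signal between them. Binding to human IRAK-M was assessed by KINOMEscan competition at the kinase active site.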

Row | SMILES | DC50 (IRAK-M [1]) [µM] | IC50 [2] [µM] | remaining binding at 1 µM (IRAK-M [3]) [%] | IC50 (IRAK-M [3]) [µM]
1 | CN[C@@H](C)C(=O)N[C@H](C(=O)N1CCN(C(=O)c2c(C)c3ccccc3n2CC(=O)N(C)CCOCCOCCOCCOc2cc(CN3CCC(Oc4ccnc5ccsc45)CC3)on2)CC1)C1CCCCC1 [Example 35, (S)-N-((S)-1-cyclohexyl-2-(4-(3-methyl-1-(3-methyl-2-oxo-14-((5-((4-(thieno[3,2-b]pyridin-7-yloxy)piperidin-1-yl)methyl)isoxazol-3-yl)oxy)-6,9,12-trioxa-3-azatetradecyl)-1H-indole-2-carbonyl)piperazin-1-yl)-2-oxoethyl)-2-(methylamino)propanamide] | 0.3 to 1 | 3 to 30 | 25 to 50 | 
2 | CN[C@@H](C)C(=O)N[C@H](C(=O)N1CCN(C(=O)c2c(C(=O)N(C)CCOCCOCCOc3cc(CN4CCC(Oc5ccnc6ccsc56)CC4)on3)c3cc(F)c(F)cc3n2C)CC1)C1CCCCC1 [Example 1, 2-(4-((S)-2-Cyclohexyl-2-((S)-2-(methylamino)propanamido)acetyl)piperazine-1-carbonyl)-5,6-difluoro-N,1-dimethyl-N-(2-(2-(2-((5-((4-(thieno[3,2-b]pyridin-7-yloxy)piperidin-1-yl)methyl)isoxazol-3-yl)oxy)ethoxy)ethoxy)ethyl)-1H-indole-3-carboxamide hydrochloride] | 0.3 to 1 | 0.3 to 3 |  | 0.3 to 1
3 | CN[C@@H](C)C(=O)N[C@H](C(=O)N1CCN(C(=O)c2cc3cc(F)c(F)cc3n2CC(=O)N2CCOC[C@H]2COc2cc(CN3CCC(Oc4ccnc5ccsc45)CC3)on2)CC1)C1CCCCC1 [Example 44, (S)-N-((S)-1-cyclohexyl-2-(4-(5,6-difluoro-1-(2-oxo-2-((S)-3-(((5-((4-(thieno[3,2-b]pyridin-7-yloxy)piperidin-1-yl)methyl)isoxazol-3-yl)oxy)methyl)morpholino)ethyl)-1H-indole-2-carbonyl)piperazin-1-yl)-2-oxoethyl)-2-(methylamino)propanamide] | 0.3 to 1 | 3 to 30 | 25 to 50 | 
4 | CN[C@@H](C)C(=O)N[C@H](C(=O)N1CCN(C(=O)c2c(F)c3cc(F)ccc3n2CC(=O)N(C)CCOCCOCCOCCOc2cc(CN3CCC(Oc4ccnc5ccsc45)CC3)on2)CC1)C1CCCCC1 [Example 36, (S)-N-((S)-1-cyclohexyl-2-(4-(3,5-difluoro-1-(3-methyl-2-oxo-14-((5-((4-(thieno[3,2-b]pyridin-7-yloxy)piperidin-1-yl)methyl)isoxazol-3-yl)oxy)-6,9,12-trioxa-3-azatetradecyl)-1H-indole-2-carbonyl)piperazin-1-yl)-2-oxoethyl)-2-(methylamino)propanamide] | 0.3 to 1 | 3 to 30 | 25 to 50 | 

More lines, now with the values ahead:

Row | DC50 (IRAK-M [1]) [µM] | IC50 [2] [µM] | remaining binding at 1 µM (IRAK-M [3]) [%] | IC50 (IRAK-M [3]) [µM] | SMILES
5 | 0.3 to 1 | 3 to 30 | < 25 |  | CN[C@@H](C)C(=O)N[C@H](C(=O)N1CCN(C(=O)c2c(C)c3cc(F)ccc3n2CC(=O)N(C)CCOCCOCCOCCOc2cc(CN3CCC(Oc4ccnc5ccsc45)CC3)on2)CC1)C1CCCCC1 [Example 33, (S)-N-((S)-1-cyclohexyl-2-(4-(5-fluoro-3-methyl-1-(3-methyl-2-oxo-14-((5-((4-(thieno[3,2-b]pyridin-7-yloxy)piperidin-1-yl)methyl)isoxazol-3-yl)oxy)-6,9,12-trioxa-3-azatetradecyl)-1H-indole-2-carbonyl)piperazin-1-yl)-2-oxoethyl)-2-(methylamino)propanamide]
6 | 0.03 to 0.1 | 3 to 30 | < 25 |  | CN[C@@H](C)C(=O)N[C@H](C(=O)N1CCN(C(=O)c2cc3cc(F)c(F)cc3n2CC(=O)N2CCC[C@H]2COc2cc(CN3CCC(Oc4ccnc5ccsc45)CC3)on2)CC1)C1CCCCC1 [Example 25, (S)-N-((S)-1-Cyclohexyl-2-(4-(5,6-difluoro-1-(2-oxo-2-((S)-2-(((5-((4-(thieno[3,2-b]pyridin-7-yloxy)piperidin-1-yl)methyl)isoxazol-3-yl)oxy)methyl)pyrrolidin-1-yl)ethyl)-1H-indole-2-carbonyl)piperazin-1-yl)-2-oxoethyl)-2-(methylamino)propanamide hydrochloride]
7 | < 0.03 | 3 to 30 |  | 0.3 to 1 | CN[C@@H](C)C(=O)N[C@H](C(=O)N1CCN(C(=O)c2cc3cc(F)ccc3n2CC(=O)N2CCC[C@H]2COc2cc(CN3CCC(Oc4ccnc5ccsc45)CC3)on2)CC1)C1CCCCC1 [Example 26, (S)-N-((S)-1-Cyclohexyl-2-(4-(5-fluoro-1-(2-oxo-2-((S)-2-(((5-((4-(thieno[3,2-b]pyridin-7-yloxy)piperidin-1-yl)methyl)isoxazol-3-yl)oxy)methyl)pyrrolidin-1-yl)ethyl)-1H-indole-2-carbonyl)piperazin-1-yl)-2-oxoethyl)-2-(methylamino)propanamide]
8 | 0.1 to 0.3 | 3 to 30 | 25 to 50 |  | CN[C@@H](C)C(=O)N[C@H](C(=O)N1CCN(C(=O)c2c(F)c3cc(F)ccc3n2CC(=O)N2CCC[C@H]2COc2cc(CN3CCC(Oc4ccnc5ccsc45)CC3)on2)CC1)C1CCCCC1 [Example 41, (S)-N-((S)-1-cyclohexyl-2-(4-(3,5-difluoro-1-(2-oxo-2-((S)-2-(((5-((4-(thieno[3,2-b]pyridin-7-yloxy)piperidin-1-yl)methyl)isoxazol-3-yl)oxy)methyl)pyrrolidin-1-yl)ethyl)-1H-indole-2-carbonyl)piperazin-1-yl)-2-oxoethyl)-2-(methylamino)propanamide]

Source: US20220402935A1, “HETEROCYCLIC COMPOUND” (FIMECS, INC., priority 2019, published 2022)
